PubChem BioAssay (NCI)
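Compound exposure: 48 hours, 5 concentrations, 96-well plates. TGI is the concentration that stops growth completely.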

What was measured:
Assay in all cases: growth of human tumour cells (NCI), 48 h
T-47D breast = tested on: T-47D breast
HS 578T breast = tested on: HS 578T breast
SK-MEL-2 melanoma = tested on: SK-MEL-2 melanoma
MDA-MB-231 breast = tested on: MDA-MB-231 breast
RXF 393 renal = tested on: RXF 393 renal
NCI-H23 lung = tested on: NCI-H23 lung
IGROV1 ovarian = tested on: IGROV1 ovarian
OVCAR-8 ovarian = tested on: OVCAR-8 ovarian
CCRF-CEM leukemia = tested on: CCRF-CEM leukemia
NCI/ADR-RES ovarian = tested on: NCI/ADR-RES ovarian
COLO 205 colon = tested on: COLO 205 colon
SN12C renal = tested on: SN12C renal
K-562 leukemia = tested on: K-562 leukemia
SF-295 CNS = tested on: SF-295 CNS
M14 melanoma = tested on: M14 melanoma
LOX IMVI melanoma = tested on: LOX IMVI melanoma
RPMI-8226 leukemia = tested on: RPMI-8226 leukemia
SF-268 CNS = tested on: SF-268 CNS
BT-549 breast = tested on: BT-549 breast
EKVX NSCLC = tested on: EKVX NSCLC
HT29 colon = tested on: HT29 colon
OVCAR-4 ovarian = tested on: OVCAR-4 ovarian
MALME-3M melanoma = tested on: MALME-3M melanoma
786-0 renal = tested on: 786-0 renal
DU-145 prostate = tested on: DU-145 prostate
SK-OV-3 ovarian = tested on: SK-OV-3 ovarian
PC-3 prostate = tested on: PC-3 prostate
NCI-H460 lung = tested on: NCI-H460 lung
A549 NSCLC = tested on: A549 NSCLC
OVCAR-3 ovarian = tested on: OVCAR-3 ovarian
UACC-257 melanoma = tested on: UACC-257 melanoma
HCT-15 colon = tested on: HCT-15 colon
U251 CNS = tested on: U251 CNS
KM12 colon = tested on: KM12 colon
SK-MEL-28 melanoma = tested on: SK-MEL-28 melanoma
OVCAR-5 ovarian = tested on: OVCAR-5 ovarian
SW-620 colon = tested on: SW-620 colon
SNB-19 CNS = tested on: SNB-19 CNS
HOP-92 NSCLC = tested on: HOP-92 NSCLC
MDA-MB-435 = tested on: MDA-MB-435
UO-31 renal = tested on: UO-31 renal
UACC-62 melanoma = tested on: UACC-62 melanoma
SF-539 CNS = tested on: SF-539 CNS
MDA-N = tested on: MDA-N
MOLT-4 leukemia = tested on: MOLT-4 leukemia
TK-10 renal = tested on: TK-10 renal
HOP-62 NSCLC = tested on: HOP-62 NSCLC
CAKI-1 renal = tested on: CAKI-1 renal
HCT-116 colon = tested on: HCT-116 colon
SNB-75 CNS = tested on: SNB-75 CNS
HL-60(TB) leukemia = tested on: HL-60(TB) leukemia
A498 renal = tested on: A498 renal
SR leukemia = tested on: SR leukemia
NCI-H226 lung = tested on: NCI-H226 lung
ACHN renal = tested on: ACHN renal
HCC-2998 colon = tested on: HCC-2998 colon
SK-MEL-5 melanoma = tested on: SK-MEL-5 melanoma
MCF7 breast = tested on: MCF7 breast

O=C(Oc1ccccc1)N1c2ccccc2[C@@]23O[C@]24CCC[C@H]3C#C/C=C\C#C[C@H]14
TGI (T-47D breast): 22 µM | TGI (HS 578T breast): 47.1 µM | TGI (SK-MEL-2 melanoma): 25.5 µM | TGI (MDA-MB-231 breast): 24.8 µM | TGI (RXF 393 renal): 21.8 µM | TGI (NCI-H23 lung): 28.7 µM | TGI (IGROV1 ovarian): 24.9 µM | TGI (OVCAR-8 ovarian): 24.8 µM | TGI (CCRF-CEM leukemia): > 100 µM | TGI (NCI/ADR-RES ovarian): 33.2 µM | TGI (COLO 205 colon): 28 µM | TGI (SN12C renal): 26.6 µM | TGI (K-562 leukemia): > 100 µM | TGI (SF-295 CNS): 30.9 µM | TGI (M14 melanoma): 30.6 µM | TGI (LOX IMVI melanoma): 25.6 µM | TGI (RPMI-8226 leukemia): 32.9 µM | TGI (SF-268 CNS): 43.2 µM | TGI (BT-549 breast): 25.5 µM | TGI (EKVX NSCLC): 31.8 µM | TGI (HT29 colon): 23.2 µM | TGI (OVCAR-4 ovarian): 23.3 µM | TGI (MALME-3M melanoma): 22.1 µM | TGI (786-0 renal): 22.2 µM | TGI (DU-145 prostate): 30.5 µM | TGI (SK-OV-3 ovarian): 17.1 µM | TGI (PC-3 prostate): 23.8 µM | TGI (NCI-H460 lung): 11.4 µM | TGI (A549 NSCLC): 25 µM | TGI (OVCAR-3 ovarian): 26.1 µM | TGI (UACC-257 melanoma): 28.7 µM | TGI (HCT-15 colon): 25.9 µM | TGI (U251 CNS): 30.3 µM | TGI (KM12 colon): 26.4 µM | TGI (SK-MEL-28 melanoma): 27 µM | TGI (OVCAR-5 ovarian): 24.1 µM | TGI (SW-620 colon): 23.5 µM | TGI (SNB-19 CNS): 29.1 µM | TGI (HOP-92 NSCLC): 27 µM | TGI (MDA-MB-435): 36.7 µM | TGI (UO-31 renal): 26.5 µM | TGI (UACC-62 melanoma): 23.6 µM | TGI (SF-539 CNS): 45.8 µM | TGI (MDA-N): 26.9 µM | TGI (MOLT-4 leukemia): > 100 µM | TGI (TK-10 renal): 47.8 µM | TGI (HOP-62 NSCLC): 25.6 µM | TGI (CAKI-1 renal): 25.7 µM | TGI (HCT-116 colon): 24.2 µM | TGI (SNB-75 CNS): 23.3 µM | TGI (HL-60(TB) leukemia): 26.1 µM | TGI (A498 renal): 27.6 µM | TGI (SR leukemia): 41.1 µM | TGI (NCI-H226 lung): 38.1 µM

CNC(=S)N=Nc1c(O)n(CN2CCOCC2)c2ccc([N+](=O)[O-])cc12
TGI (T-47D breast): 38.9 µM | TGI (HS 578T breast): 73 µM | TGI (ACHN renal): 35.3 µM | TGI (SK-MEL-2 melanoma): 21.2 µM | TGI (MDA-MB-231 breast): 25 µM | TGI (RXF 393 renal): 30 µM | TGI (NCI-H23 lung): 32.2 µM | TGI (CCRF-CEM leukemia): 71.8 µM | TGI (NCI/ADR-RES ovarian): 38 µM | TGI (COLO 205 colon): 91.3 µM | TGI (SN12C renal): 38.5 µM | TGI (K-562 leukemia): > 100 µM | TGI (SF-295 CNS): 53.4 µM | TGI (M14 melanoma): > 100 µM | TGI (LOX IMVI melanoma): 31.8 µM | TGI (RPMI-8226 leukemia): 50.5 µM | TGI (SF-268 CNS): 47.5 µM | TGI (HCC-2998 colon): 45.1 µM | TGI (EKVX NSCLC): 43.7 µM | TGI (HT29 colon): > 100 µM | TGI (OVCAR-4 ovarian): 31.2 µM | TGI (MALME-3M melanoma): 43.3 µM | TGI (786-0 renal): 28.7 µM | TGI (DU-145 prostate): 27.3 µM | TGI (SK-OV-3 ovarian): 31.9 µM | TGI (PC-3 prostate): 57.5 µM | TGI (NCI-H460 lung): 75 µM | TGI (A549 NSCLC): > 100 µM | TGI (OVCAR-3 ovarian): 34.5 µM | TGI (UACC-257 melanoma): 77.6 µM | TGI (HCT-15 colon): 26.6 µM | TGI (U251 CNS): 37.6 µM | TGI (KM12 colon): 97.9 µM | TGI (SK-MEL-28 melanoma): 54.8 µM | TGI (OVCAR-5 ovarian): 70.5 µM | TGI (SW-620 colon): > 100 µM | TGI (SNB-19 CNS): 61.2 µM | TGI (HOP-92 NSCLC): 43.9 µM | TGI (MDA-MB-435): > 100 µM | TGI (UO-31 renal): 14.2 µM | TGI (UACC-62 melanoma): 33.3 µM | TGI (SK-MEL-5 melanoma): > 100 µM | TGI (SF-539 CNS): 33.1 µM | TGI (MDA-N): > 100 µM | TGI (MOLT-4 leukemia): > 100 µM | TGI (TK-10 renal): 29.8 µM | TGI (MCF7 breast): 42.9 µM | TGI (HOP-62 NSCLC): 28.2 µM | TGI (CAKI-1 renal): 64.1 µM | TGI (HCT-116 colon): 28.7 µM | TGI (HL-60(TB) leukemia): 69.8 µM | TGI (A498 renal): 66.8 µM | TGI (SR leukemia): > 100 µM | TGI (NCI-H226 lung): 36.3 µM
